One series concerns PDH. The note with it: cited from earlier work.
For series [1] the following is noted: cited from earlier work.

Data on seven molecules can be found in US6498275B1, “Use of compounds for the elevation of pyruvate dehydrogenase activity” (AstraZeneca AB, priority 1998, dated 2002).

Regarding `CC(C)(O)C(=O)Nc1ccc(S(=O)(=O)c2ccccc2)cc1F`, the melting point lay in the range of 155.5 to 156.5 °C. In turn, `C[S+]([O-])c1ccccc1S(=O)(=O)c1ccc(NC(=O)[C@@](C)(O)C(F)(F)F)c(Cl)c1` (stereo partly shown) came in with a melting point of 118 to 120 °C. The same measure, in the same setting: to `CC(=O)Nc1cc(S(=O)(=O)c2ccccc2)ccc1NC(=O)C(C)(O)C(F)(F)F` (stereo not shown) belongs 205 to 207 °C; to `CC(C)(O)C(=O)Nc1ccc(Sc2ccccc2)cc1F`, 91 to 92.5 °C; to `CC(C)(O)C(=O)Nc1ccc(Sc2ccc(NS(C)(=O)=O)cc2)cc1Cl`, 138 to 140 °C. In turn, `C[C@@](O)(C(=O)Nc1ccc(S(=O)(=O)c2ccccc2NCCO)cc1Cl)C(F)(F)F` had a melting point of 68 to 70 °C.

For `O=C(O)C(Cl)Cl` [DCA, dichloroacetic acid], in the series with PDH (after acute administration in animals (Vary et al. 1988)), the “activity of PDH” value was “increases the activity of PDH”. Further, the “proportion of PDH in its active form” value in the series on PDH (single administration, 150 mg/kg, intraperitoneally (Vary et al. 1988)) is “increased the proportion of PDH in its active form”. Besides, the glycaemia entry in series [1] (Stacpoole et al. 1978) was “reducing glycaemia”. Besides, the plasma glucose result in series [1] (after repeated administration (Evans and Stacpoole 1982)) is given as “significant decrease in plasma glucose”.
